Assays:
Assay type in all cases: cell-based
HeLa = assay: MTT cytotoxicity assay, HeLa; conditions: Homo sapiens, 48 h, mean ± SD, three independent experiments
Description: (§1) The in vitro cytotoxic potency of DHAA acyl-thiourea derivatives 8a–8o and 9a–9o were evaluated by 3-(4,5-dimethylthiazol-2-yl)-2,5-diphenyltetrazolium bromide (MTT) assay against HeLa, SK-OV-3 and MGC-803 tumor cell lines, with 5-FU as the positive control.
(§2) General procedure for cytotoxic evaluation in vitro: HeLa, HepG2, SK-OV-3 and MGC-803 cells were seeded into 96-well microculture plates and allowed to adhere for 24 h, respectively. After cells were exposed to compounds at concentrations from 100 to 0.01 μM for 48 h, medium was aspirated and replenished with complete medium. IC50 was evaluated by MTT tetrazolium dye assay. Each experiment was performed three times; Statistical analysis: All statistical analysis was performed with SPSS Version 10 (SPSS, Chicago, IL, USA). Data was analyzed by one-way ANOVA. Mean separations were performed using the least significant difference method. Each experiment was replicated thrice, and all experiments yielded similar results. Measurements from all the replicates were combined, and treatment effects were analyzed.

SK-OV-3 = assay: MTT cytotoxicity assay, SK-OV-3; conditions: Homo sapiens, 48 h, mean ± SD, three independent experiments
Description: as §1, §2

MGC-803 = assay: MTT cytotoxicity assay, MGC-803; conditions: Homo sapiens, 48 h, mean ± SD, three independent experiments
Description: as §1, §2

HL-7702 = assay: MTT cytotoxicity assay, HL-7702 normal cells; conditions: L02, 48 h, normal human cells, mean ± SD, three independent experiments
Description: [The source words this procedure for another cell line and reports this cell line under the same test.] as §1, §2

SMILES	IC50 (HeLa) [µM]	IC50 (SK-OV-3) [µM]	IC50 (MGC-803) [µM]	IC50 (HL-7702) [µM]
CC(C)c1ccc2c(c1)CCC1[C@](C)(C(=O)NC(=S)N[C@H](Cc3ccccc3)C(=O)Nc3cccc4ccccc34)CCC[C@]21C (stereo partly drawn) [Compound 9m, (1R,4aS)-7-Isopropyl-1,4a-dimethyl-N-(((R)-1-(naphthalen-1-ylamino)-1-oxo-3-phenylpropan-2-yl)carbamothioyl)-1,2,3,4,4a,9,10,10a-octahydrophenanthrene-1-carboxamide]	12.8 ± 1.2	15.3 ± 1.73	22.9 ± 1.66	35.6 ± 1.53
COc1cc(NC(=O)[C@@H](Cc2ccccc2)NC(=S)NC(=O)[C@]2(C)CCC[C@]3(C)c4ccc(C(C)C)cc4CCC23)cc(OC)c1OC (stereo partly drawn) [Compound 9o, (1R,4aS)-7-Isopropyl-1,4a-dimethyl-N-(((R)-1-oxo-3-phenyl-1-((3,4,5-trimethoxyphenyl)amino)propan-2-yl)carbamothioyl)-1,2,3,4,4a,9,10,10a-octahydrophenanthrene-1-carboxamide]	17.5 ± 1.54	29.3 ± 2.04	29.3 ± 2.09	59.3 ± 2.54

Reference: article PMC4519859, “Synthesis and Biological Evaluation of Novel Dehydroabietic Acid Derivatives Conjugated with Acyl-Thiourea Peptide Moiety as Antitumor Agents” (International Journal of Molecular Sciences, 2015)
